Results from patent publication US20250040548A1, “Herbicidal compositions comprising saflufenacil” (BASF SF, priority 2023, published 2025).

Legend:
ELEIN [1] = experiment: Post-emergence application in field trials (Examples 2 and 3); type: in vivo, Eleusine indica
Protocol: (§1) In the examples below, using the method of S. R. Colby (1967) “Calculating synergistic and antagonistic responses of herbicide combinations”, Weeds 15, p. 22ff., the value E, which is expected if the activity of the individual active compounds is only additive, was calculated.
(§2) [formula] • where • X=percent activity using active herbicide A at an application rate a; • Y=percent activity using active saflufenacil at an application rate b; • E=expected activity (in %) by A+B at application rates a+b.
(§3) If the value found experimentally is higher than the value E calculated according to Colby, a synergistic effect is present.
(§4) On field test sites, natural weed infestation or seeded weeds were treated post-emergence of the weeds.
(§5) For the post emergence treatment, the weedy plants were treated as indicated below. The herbicidal compositions were, together with the adjuvant(s) as indicated, suspended or emulsified in water (200 l/ha unless indicated otherwise) as distribution medium and sprayed with commercial flat fan nozzles.
(§6) In the following experiments, the herbicidal activity for the individual herbicidal compositions (solo and mixture applications) was assessed the indicated days after treatment (DAT). The assessments for the damage on undesired weeds caused by the composition was carried out using a scale from 0 to 100%, compared to the untreated control plants. Here, 0 means no damage and 100 means complete destruction of the plants.
as §5, with “I/ha” for “l/ha”

SETFA = experiment: Post-emergence application in greenhouse trials; type: in vivo, Setaria faberi; conditions: 7 DAT, growth stage 13, 1% MSO
Protocol: as §1, §2, §3
(§7) The culture containers used were plastic pots containing loamy sand with approximately 3.0% of humus as substrate. The seeds of the test plants were sown separately for each species.
(§8) For the post-emergence treatment, the test plants were grown to a plant height of from 3 to 15 cm, depending on the plant habit, and only then treated with the active compounds which had been suspended or emulsified in water. To this end, the test plants were either sown directly, and grown in the same containers, or they were first grown separately as seedlings and transplanted into the test containers a few days prior to treatment.
(§9) Depending on the species, the plants were kept at 10-25° C. and 20-35° C., respectively.
(§10) The test period extended over 2 to 4 weeks. During this time, the plants were tended and their response to the individual treatments was evaluated.
(§11) Evaluation was carried out using a scale from 0 to 100. 100 means no emergence of the plants, or complete destruction of at least the above-ground parts, and 0 means no damage or normal course of growth. A good herbicidal activity is given at values of at least 70, and very good herbicidal activity is given at values of at least 85.
(§12) Unless indicated otherwise, herbicide A and saflufenacil were formulated (50 g/I) and applied with addition of 1% MSO (methylated seed oil) as adjuvant. In the greenhouse trials, the solvent used was water (200 I/ha).

BIDPI = experiment: Post-emergence application in field trials (Examples 2 and 3); type: in vivo, Bidens pilosa; conditions: A-1 25 g ai/ha, 21 DAT, growth stage 12-16, height 5-10 cm, 0.5% MSO
Protocol: as §1, §2, §3, §4, §5
as §6, with “Here, 0 means no damage and 100 means complete destruction of the plants.” left out

AVEST = experiment: as above; type: in vivo, Avena stirilis; conditions: growth stage 12-22, A-1 solo 12.5 g ai/ha, 14 DAT, 1% v/ MSO
Protocol: as §1, §2, §3, §4, §5
as §6, with “Here, 0 means no damage and 100 means complete destruction of the plants.” left out

COMBE = experiment: Post-emergence application in greenhouse trials; type: in vivo, Commelina benghalensis; conditions: growth stage 21, 1% MSO
Protocol: as §1, §2, §3, §7, §8, §9, §10, §11, §12

STEME = experiment: Post-emergence application in field trials (Examples 2 and 3); type: in vivo, Stellaria media; conditions: A-1 12.5 g ai/ha, 21 DAT, growth stage 63-67, height 7-18 cm, 140 l/ha water, 1% MSO + 2.5% ammoniumsulfate
Protocol: as §1, §2, §3, §4, §5
as §6, with “Here, 0 means no damage and 100 means complete destruction of the plants.” left out

KCHSC = experiment: Post-emergence application in greenhouse trials; type: in vivo, Kochia scoparia; conditions: growth stage 33, 1% MSO
Protocol: as §1, §2, §3, §7, §8, §9, §10, §11, §12

ELEIN [2] = experiment: Post-emergence application in greenhouse trials; type: in vivo, Eleusine indica; conditions: A-1 3.12 g ai/ha, 21 DAT, growth stage 21, saflufenacil as commercial 342 g/l SC formulation
Protocol: as §1, §2, §3, §7
as §8, with “treatment. […]” for “treatment.”
(§13) The test period extended over 2 to 4 weeks. During this time, the plants were tended and their response to the individual treatments was evaluated. […]

[3] = system: ZEAMX* (non-PPOi herbicide tolerant); experiment: Post-emergence application in field trials (Examples 2 and 3); type: in vivo, Zea mays; conditions: 21 DAT
Protocol: as §1, §2, §3, §4, §5, §6
as §5, with “I/ha” for “l/ha”

CHEAL = experiment: Post-emergence application in greenhouse trials; type: in vivo, Chenopodium album; conditions: A-1 3.12 g ai/ha, 21 DAT, growth stage 51, saflufenacil as commercial 342 g/l SC formulation
Protocol: as §1, §2, §3, §7
as §8, with “treatment. […]” for “treatment.”
as §13

AVEFA = experiment: Post-emergence application in field trials (Examples 2 and 3); type: in vivo, Avena fatua; conditions: 1% v/v MSO
Protocol: as §1, §2, §3, §4, §5, §6
as §5, with “I/ha” for “l/ha”

ERISS = experiment: as above; type: in vivo, Erigeron sp.; conditions: 14 DAT, height 30-50 cm, 0.5% v/v MSO
Protocol: as §1, §2, §3, §4, §5, §6
as §5, with “I/ha” for “l/ha”

POAAN = experiment: as above; type: in vivo, Poa annua
Protocol: as §1, §2, §3, §4, §5, §6
as §5, with “I/ha” for “l/ha”

SETVI = experiment: as above; type: in vivo, Setaria viridis
Protocol: as §1, §2, §3, §4, §5, §6
as §5, with “I/ha” for “l/ha”

CCOC(=O)COc1ccccc1Oc1nc(-n2c(=O)cc(C(F)(F)F)n(C)c2=O)c(F)cc1Cl [A-1, ethyl 2-[2-[[3-chloro-5-fluoro-6-[3-methyl-2,6-dioxo-4-(trifluoromethyl)pyrimidin-1-yl]-2-pyridyl]oxy]phenoxy]acetate]
% Herbicidal activity (ELEIN [1]; A-1 12.5 g ai/ha, 21 DAT, height 1-15 cm, 140 l/ha water, 1% MSO + 2.5% ammoniumsulfate): 49% | % Herbicidal activity (ELEIN [1]; A-1 12.5 g ai/ha, 21 DAT, height 7-10 cm, 1% v/v MSO and 1% w/v ammoniumsulfate): 18% | % Herbicidal activity (ELEIN [1]; A-1 12.5 g ai/ha, 21 DAT, height 15-20 cm, 1% v/v MSO and 1% w/v ammoniumsulfate): 27% | % Herbicidal activity (ELEIN [1]; A-1 25 g ai/ha, 19 DAT, growth stage 24, 0.5% MSO): 68% | % Herbicidal activity (ELEIN [1]; A-1 25 g ai/ha, 21 DAT, height 7-10 cm, 1% v/v MSO and 1% w/v ammoniumsulfate): 78% | % Herbicidal activity (ELEIN [1]; A-1 25 g ai/ha, 21 DAT, height 15-20 cm, 1% v/v MSO and 1% w/v ammoniumsulfate): 55% | % Herbicidal activity (ELEIN [1]; A-1 50 g ai/ha, 19 DAT, growth stage 24, 0.5% MSO): 73% | % Herbicidal activity (SETFA; A-1 0.2 g ai/ha): 35% | % Herbicidal activity (SETFA; A-1 0.3 g ai/ha): 55% | % Herbicidal activity (SETFA; A-1 0.4 g ai/ha): 65% | % Herbicidal activity (SETFA; A-1 0.5 g ai/ha): 80% | % Herbicidal activity (BIDPI): 94% | % Herbicidal activity (AVEST): 95% | % Herbicidal activity (COMBE; A-1 0.2 g ai/ha, 6 DAT): 15% | % Herbicidal activity (COMBE; A-1 0.2 g ai/ha, 20 DAT): 40% | % Herbicidal activity (COMBE; A-1 0.4 g ai/ha, 20 DAT): 75% | % Herbicidal activity (STEME): 83% | % Herbicidal activity (KCHSC; A-1 0.2 g ai/ha, 6 DAT): 15% | % Herbicidal activity (KCHSC; A-1 0.2 g ai/ha, 20 DAT): 15% | % Herbicidal activity (KCHSC; A-1 0.3 g ai/ha, 6 DAT): 55% | % Herbicidal activity (KCHSC; A-1 0.4 g ai/ha, 6 DAT): 55% | % Herbicidal activity (KCHSC; A-1 0.4 g ai/ha, 20 DAT): 55% | % Herbicidal activity (KCHSC; A-1 0.9 g ai/ha, 6 DAT): 90% | % Herbicidal activity (KCHSC; A-1 1 g ai/ha, 6 DAT): 95% | % Herbicidal activity (ELEIN [2]): 80% | % Herbicidal activity ([3]; A-1 12.5 g ai/ha, growth stage 15, 1% v/v MSO and 1% w/v ammoniumsulfate): 40% | % Herbicidal activity ([3]; A-1 25 g ai/ha, growth stage 15, 1% v/v MSO and 1% w/v ammoniumsulfate): 83% | % Herbicidal activity ([3]; A-1 50 g ai/ha, growth stage 18, 0.5% MSO): 92% | % Herbicidal activity (CHEAL): 65% | % Herbicidal activity (AVEFA; A-1 18 g ai/ha, 28 DAT, growth stage 14-15, height 9-16 cm, field, 100 l/ha water): 83% | % Herbicidal activity (AVEFA; A-1 18 g ai/ha, 29 DAT, growth stage 14-23, height 24-40 cm, field, 100 l/ha water): 80% | % Herbicidal activity (AVEFA; AVEFA, growth stage 15-16, height 25-38 cm, A-1 solo 12.5 g ai/ha, 16 DAT): 90% | % Herbicidal activity (AVEFA; AVEFA, growth stage 15-16, height 25-38 cm, A-1 solo 25 g ai/ha, 16 DAT): 95% | % Herbicidal activity (AVEFA; AVEFA, growth stage 15-16, height 25-38 cm, A-1 solo 50 g ai/ha, 16 DAT): 98% | % Herbicidal activity (ERISS; A-1 25 g ai/ha): 13% | % Herbicidal activity (ERISS; A-1 50 g ai/ha): 18% | % Herbicidal activity (POAAN; A-1 12.5 g ai/ha, 21 DAT, growth stage 55-65, height 10-15 cm, field, 140 l/ha water, 1% MSO + 2.5% ammoniumsulfate): 33% | % Herbicidal activity (POAAN; POAAN, height 2.5-4 cm, A-1 solo 12.5 g ai/ha, 7 DAT, 1% v/v MSO): 83% | % Herbicidal activity (POAAN; POAAN, height 2.5-4 cm, A-1 solo 25 g ai/ha, 7 DAT, 1% v/v MSO): 88% | % Herbicidal activity (SETVI; A-1 12.5 g ai/ha, 19 DAT, growth stage 13-19, height 2.5-10 cm, field, 1% v/v MSO and 1% w/v ammoniumsulfate): 87% | % Herbicidal activity (SETVI; A-1 25 g ai/ha, 19 DAT, growth stage 13-19, height 2.5-10 cm, field, 1% v/v MSO and 1% w/v ammoniumsulfate): 96% | % Herbicidal activity (SETVI; SETVI, height 50-61 cm, A-1 solo 25 g ai/ha, 42 DAT, 1% v/v MSO and 2.5% AMSOL ®): 57%
